In US5929032A, “Method for treating Schwann and colon cells in vitro” (Amgen Inc., priority 1996, dated 1999):
Entries after “also recorded” stand apart in the source; their conditions may differ.

Experiments:
LIM 1215 cells = assay: Marker protein expression, ACAS confocal image cytometer; format: cell-based, human; design: key to Marker Protein Expression: CEA / Marker Protein Expression: Integrin β4 / Marker Protein Expression: Villin: increased expression (+); down-regulated (-); unchanged (0)
Excerpt: Additional confirmation of the importance of this seven amino-acid sequence was obtained by scoring for various marker proteins on the LIM 1215 cells. An ACAS confocal image cytometer was used to detect a number of markers on the cells without detaching the cells from the culture dish, as is normally done for fluorescence activated cell sorting (FACS) analysis. […] The expression of a number of other markers was unchanged (0) by treatment with EGF-β. Analogous to the previous results characterizing gross, observable morphology changes, neither EGF-α nor EGF-β/α changed the levels of these marker proteins, while EGF-α/β changed the expression of the marker proteins in a manner similar to that seen with EGF-β.

[1] = test system: LIM 1215 human colon epithelial cells; assay: Morphogenic activity: fluorescent actin staining (NBD phalloidin), confocal microscope; format: cell-based; details: 420 picomolar peptide, three days, serum-free media
Description: c) Staining of LIM 1215 human colon cells with fluorescent dye. LIM 1215 cells were grown in RPMI-1640 media supplemented with 5% FBS, 1 μg/ml of bovine insulin, 10 μm of alpha thioglycerol, and 1× PSG. At the time of assay, the cells were more than 30% confluent and were proliferating rapidly. The cells were seeded into 24-well plates at 25,000 cells/well in serum-free media (McCoy's-5A, supplemented with 4 μg/ml of transferrin, 10 μg/ml of insulin, 10 mM of selenic acid, […], and 0.03% BSA). Test peptides were added at a concentration of 420 picomolar immediately on day zero; the total volume was 1.0 ml. Controls included no treatment and serial dilutions of FBS. The 24-well plates were then incubated for three days at 37° C. and 5% CO2, after which the media were removed by aspiration and the cells were washed in 1.0 ml of PBS with 0.5% BSA. All subsequent washings were performed with this buffer. The cells were then fixed in Orthopermeafix (Ortho Chemicals Co.) for thirty minutes at room temperature, and were washed twice. Then 200 μl of a 10 nM NBD phalloidin fluorescent dye solution in PBS were added and the cells were incubated in the dark (wrapped in aluminum foil) for thirty minutes at room temperature. The cells were washed twice, and inspected using a confocal microscope.
d) Morphogenic activity of peptides on colon epithelial cells. Upon treatment of LIM 1215 cells with the EGF-β peptide, it was evident that the morphology of the cells changed dramatically. […] In the absence of treatment, the cells appeared small and rounded. […] Because the cells were proliferating rapidly in 5% FBS serum-containing media (FIG. 3), the unique morphology caused by the EGF-β peptide could not have been due solely to its ability to stimulate proliferation. Moreover, the difference in morphogenic activities between EGF-β and EGF-α must have originated in the last sixteen amino acids of the C-terminus, as this is the only difference in sequence between the two peptides.
Further localization of morphogenic activity was obtained by use of the chimeric peptides, EGF-β/α and EGF-α/β. […] Again, the only difference in sequence between these two peptides is the last seven amino acids of the C-terminal portion.

Schwann cells = assay: Schwann cell proliferation (BrdU incorporation, NGFR staining); format: cell-based, rat; details: for percent of Schwann cells proliferating: BrdU for six hours after 24 h; for Schwann cell proliferation, comparison in words: versus EGF-β/α
Description: The sciatic nerve from neonatal rats was used to generate a primary culture of Schwann cells. The cells were plated overnight in 10% serum without exposure to any growth factor. The following day, EGF-β, EGF-α/βand EGF-β/α were added at the concentrations in nanograms per milliliter(ng/ml) shown in Table 2, below. Twenty four hours later, BrdU was added to each test sample for six hours. BrdU is a thymidine analog which is incorporated into the DNA of dividing cells and can be detected by standard immunochemistry procedures. This agent thus provides a means for determining expansion of the total amount of DNA in a test sample and is a measure of whether cell proliferation has occurred. Upon the completion of the test period, Schwann cells were fixed and analyzed immunohistochemically. The cells were first stained for nerve growth factor receptor (NGFR), which is a known marker for Schwann cells in culture, followed by staining for BrdU. Cell counting was carried out as follows: in a given microscope field of view, all recognizable Schwann cells were counted, then the number of cells showing positive for BrdU staining were also counted. For each test sample (or well) two or three fields were counted, amounting to about 200 to 300 Schwann cells in all. The result is expressed in Table 2 as the percent of Schwann cells proliferating.

[2] = test system: LIM 1215 human colon epithelial cells; assay: Crystal violet proliferation assay; format: cell-based; details: three days, low serum (0.05%) media, crystal violet absorbance at 595 nm
Excerpt: FIG. 2. This figure is a graphical representation of the proliferative effect of the peptides of the invention on human colonic epithelial cells in vitro. These peptides are designated in the figure as EGF-β (SEQ ID NO: 2, above), represented by the closed circles, and as EGF-α/β (SEQ ID NO: 1, above), represented by the open circles. For comparison, two other peptides of equal length are included, designated as EGF-α and EGF-β/α, and represented by the closed squares and open squares, respectively. The latter two are homologs based on the EGF domain of extracellular NDF-heregulins and consist of the amino acid sequences shown further below in this text (SEQ ID NOS: 3 and 4, respectively). Proliferation is measured with a crystal violet dye which stains the cell protein and is indicative of cell number. […] The picomolar (pM) concentration of peptide used to treat the cells is shown on the horizontal axis.
a) Crystal Violet Proliferation Assay. The human colon epithelial cell line, LIM 1215 (Whitehead, R. H. et al., J. Natl. Cancer Inst. 4:759-765, 1985) was grown in RPMI-1640 media supplemented with 5% FBS, 1 μg/ml of hydrocortisone, 1 μg/ml of bovine insulin, 10 μM of alpha thioglycerol, and 1X PSG (0.292 mg/ml of 1-glutamine, 100 units/ml of penicillin G, and 100 μg/ml of streptomycin sulfate). At the start of the assay, the cells were 30% confluent and were proliferating rapidly. Cells were released by trypsin, washed with PBS, and seeded into 96-well plates at 5000 cells/well in low serum (0.05%) media (McCoy's-5A supplemented with 4 μg/ml of transferrin, 10 μg/ml of insulin, 10 mM of selenic acid, 4 nM of triiodothyronine, and 0.03% BSA). Dilutions of test peptide were added immediately on day zero; the total volume was 100 μl. Controls included no treatment and serial dilutions of FBS. The 96-well plates were then incubated for three days at 37° C. in a 5% CO2 atmosphere. The media were removed by aspiration and 30 μl of 2% crystal violet (Difco) in methanol was added to the cells for fifteen minutes of staining. Excess dye was washed away with distilled water. To each well 100 μl of 0.04N HCL in isopropanol was added and the dye was resolubilized by mixing. Absorbance was determined at 595 nm and the values were plotted as fold-stimulation over background (or no treatment).
b) Stimulation of colon cell proliferation. […] The chimeric peptides helped to pinpoint this determinant of activity to the seven residues corresponding to amino acids 222-228 of full length extracellular NDF/heregulin. […]

endoproteinase Lys-C = endoproteinase Lys-C (Lysobacter enzymogenes, UniProt Q7M135); assay: Digestion by endoproteinase Lys-C (peptide mapping); details: cleavage at lysine residue at position 211
Sequence of endoproteinase Lys-C (Q7M135 whole entry, the tested form may be a part): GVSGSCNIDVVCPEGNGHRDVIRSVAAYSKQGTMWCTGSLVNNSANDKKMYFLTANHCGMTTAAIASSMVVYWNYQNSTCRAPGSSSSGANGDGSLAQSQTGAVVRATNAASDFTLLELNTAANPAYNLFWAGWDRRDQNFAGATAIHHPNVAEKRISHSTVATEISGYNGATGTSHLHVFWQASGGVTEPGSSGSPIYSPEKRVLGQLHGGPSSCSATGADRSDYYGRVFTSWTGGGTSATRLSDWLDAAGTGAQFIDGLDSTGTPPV
Excerpt: The initial studies referred to here utilized peptides based solely on sequences of the EGF-like domain of the aforementioned α2 and β1 forms of NDF/heregulin, that is to say, that portion of the extracellular protein from amino acid residue 177 to amino acid residue 228 (see FIG. 1 herein). […] The reason for this difference was not initially apparent. However, during peptide mapping studies of the EGF-like domains of NDF/heregulins, it was discovered that the α and β forms cleaved (degraded) at different rates when subjected to digestion by endoproteinase Lys-C. […] Moreover, this phenomenon seemed limited to the lysine residue at position 211. There was no apparent difference in the rate of cleavage between α and β at any other lysine residues in the N-terminal end of the EGF-like domain.

[3] = peptide concentration 0.1 ng/ml
[4] = peptide concentration 100 ng/ml

| Substance | Marker Protein Expression: CEA (LIM 1215 cells) | Marker Protein Expression: Integrin β4 (LIM 1215 cells) | Marker Protein Expression: Villin (LIM 1215 cells) | morphological (morphogenic) changes of LIM 1215 cells [1] | percent of Schwann cells proliferating (Schwann cells; [3]) | percent of Schwann cells proliferating (Schwann cells; peptide concentration 1 ng/ml) | percent of Schwann cells proliferating (Schwann cells; peptide concentration 10 ng/ml) | percent of Schwann cells proliferating (Schwann cells; [4]) | proliferation of LIM 1215 cells (fold stimulation, FIG. 2) [2] | expression of a number of other markers (LIM 1215 cells) | rate of cleavage by endoproteinase Lys-C (endoproteinase Lys-C) | Schwann cell proliferation, comparison in words (Schwann cells) |
| --- | --- | --- | --- | --- | --- | --- | --- | --- | --- | --- | --- | --- |
| EGF-β/α: comparison chimeric 52-residue peptide SHLVK-(B)-TENVPMK; β177-221/α222-228 of extracellular NDF/heregulin (SHLVKCAEKEKTFCVNGGECFMVKDLSNPSRYLCKCPNEFTGDRCTENVPMK) [reference compound] | 0 | 0 | 0 | appear unchanged; also recorded: did not produce any noticeable change | 1% | 2% | 5% | 10% | No effect was seen; also recorded: did not show any detectable effect |  |  |  |
| EGF-β: 52-residue peptide SHLVK-(B)-QNYVMAS; EGF-like domain (residues 177-228) of NDF/heregulin β1 (SHLVKCAEKEKTFCVNGGECFMVKDLSNPSRYLCKCPNEFTGDRCQNYVMAS) | + | + | - | Evidence of cellular morphological changes is seen; also recorded: noticeable change in morphology, becoming enlarged and assuming a cobblestone-like appearance | 7.5% | 13% | 14% | 19% | best results for cell proliferation; also recorded: stimulated the proliferation of LIM 1215 cells | unchanged | more resistant to this enzyme and cleaved at a slower rate | stimulated the proliferation of Schwann cells to a significantly greater extent than EGF-β/α |
| EGF-α: comparison 52-residue peptide SHLVK-(A)-TENVPMK; EGF-like domain (residues 177-228) of NDF/heregulin α2 (SHLVKCAEKEKTFCVNGGECFMVKDLSNPSRYLCKCQPGFTGARCTENVPMK) [reference compound] | 0 | 0 | 0 | did not produce the same morphogenic changes |  |  |  |  | Some proliferation was obtained; also recorded: not as potent a mitogen |  | faster enzymatic cleavage |  |
| EGF-α/β: chimeric 52-residue peptide SHLVK-(A)-QNYVMAS; α177-221/β222-228 of extracellular NDF/heregulin EGF-like domain (SHLVKCAEKEKTFCVNGGECFMVKDLSNPSRYLCKCQPGFTGARCQNYVMAS) | + | + | - | evidence of cell development and maturation is seen; also recorded: caused apparent morphogenic changes | 1% | 10% | 10% | 17% | best results for cell proliferation; also recorded: displayed significant mitogenic activity |  |  | stimulated the proliferation of Schwann cells to a significantly greater extent than EGF-β/α |
